In ChEMBL document CHEMBL5131515, “Identification of Pyridinyltriazine Derivatives as Potent panFGFR Inhibitors against Gatekeeper Mutants for Overcoming Drug Resistance” (J Med Chem, 2022):

Assays:
[1] = molecular target: Fibroblast growth factor receptor 2 (Homo sapiens, UniProt P21802); test: Inhibition of wild-type FGFR2 (unknown origin) by radiometric kinase activity assay
[2] = molecular target: Fibroblast growth factor receptor 3 (Homo sapiens, UniProt P22607); test: Inhibition of wild-type FGFR3 (unknown origin) by radiometric kinase activity assay
[3] = molecular target: Fibroblast growth factor receptor 4 (Homo sapiens, UniProt P22455); test: Inhibition of wild-type FGFR4 (unknown origin) by radiometric kinase activity assay
[4] = molecular target: Fibroblast growth factor receptor 2 (Homo sapiens, UniProt P21802, V564F)
Description: Inhibition of FGFR2 V564F mutant (unknown origin) by radiometric kinase activity assay

[5] = molecular target: Fibroblast growth factor receptor 3 (Homo sapiens, UniProt P22607, V555M)
[6] = molecular target: Fibroblast growth factor receptor 2 (Homo sapiens, UniProt P21802, N549H)
[7] = molecular target: Fibroblast growth factor receptor 3 (Homo sapiens, UniProt P22607, K650E)
[8] = molecular target: Fibroblast growth factor receptor 3 (Homo sapiens, UniProt P22607, K650M)
BaF3 [9] = test: cells; type: functional; conditions: Mus musculus
BaF3 [10] = test: Antiproliferative activity against mouse BaF3 cells harboring TEL-FGFR3 assessed as cell growth inhibition by CellTiter-Glo assay; type: functional
[11] = Antiproliferative activity against mouse BaF3 cells assessed as cell growth inhibition by CellTiter-Glo assay; conditions: BaF3 cells
BaF3 [12] = test: Antiproliferative activity against mouse BaF3 cells harboring TEL-FGFR4 V550E mutant assessed as cell growth inhibition by CellTiter-Glo assay; type: functional
BaF3 [13] = test: Antiproliferative activity against mouse BaF3 cells harboring TEL-FGFR4 N535K mutant assessed as cell growth inhibition by CellTiter-Glo assay; type: functional
AN3-CA [14] = test: Antiproliferative activity against human AN3-CA cells harboring FGFR2 K310R/N549K mutant assessed as cell growth inhibition by CellTiter-Glo assay; type: functional
KMS-11 = test: Antiproliferative activity against human KMS-11 cells harboring FGFR3 Y373C mutant assessed as cell growth inhibition by CellTiter-Glo assay; type: functional
J82 = test: Antiproliferative activity against human J82 cells harboring FGFR3 K652E mutant assessed as cell growth inhibition by CellTiter-Glo assay; type: functional
[15] = Stability in human liver microsomes assessed as parent compound remaining at 1 uM incubated for 30 mins; type: ADME, Microsome; conditions: read-out: Stability
[16] = Stability in mouse liver microsomes assessed as parent compound remaining at 1 uM incubated for 30 mins; type: ADME, Microsome; conditions: read-out: Stability
[17] = Stability in rat liver microsomes assessed as parent compound remaining at 1 uM incubated for 30 mins; type: ADME, Microsome; conditions: read-out: Stability
[18] = Stability in dog liver microsomes assessed as parent compound remaining at 1 uM incubated for 30 mins; type: ADME, Canis lupus familiaris, Microsome; conditions: read-out: Stability
CYP1A2 = molecular target: T1, CYP1A2 (Homo sapiens, UniProt P05177); test: Inhibition of CYP1A2 (unknown origin) assessed as remaining activity at 10 uM relative to control; type: ADME; conditions: read-out: Activity
T1 sequence (P05177 whole entry): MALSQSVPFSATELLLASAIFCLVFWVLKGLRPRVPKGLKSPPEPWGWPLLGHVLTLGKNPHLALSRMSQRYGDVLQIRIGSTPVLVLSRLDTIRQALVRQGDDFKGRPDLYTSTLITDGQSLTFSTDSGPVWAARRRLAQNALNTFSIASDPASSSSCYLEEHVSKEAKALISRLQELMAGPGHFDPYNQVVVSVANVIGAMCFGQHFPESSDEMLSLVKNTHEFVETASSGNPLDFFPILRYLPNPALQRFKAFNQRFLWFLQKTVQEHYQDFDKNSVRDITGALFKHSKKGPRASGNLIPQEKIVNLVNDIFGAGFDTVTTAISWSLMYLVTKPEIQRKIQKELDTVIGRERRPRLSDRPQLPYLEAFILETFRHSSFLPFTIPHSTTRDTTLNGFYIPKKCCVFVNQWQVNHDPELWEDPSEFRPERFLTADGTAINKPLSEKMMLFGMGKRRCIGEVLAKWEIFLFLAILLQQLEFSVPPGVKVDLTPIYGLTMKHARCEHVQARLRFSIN

CYP2C9 = CYP2C9 (Homo sapiens, UniProt P11712); test: Inhibition of CYP2C9 (unknown origin) assessed as remaining activity at 10 uM relative to control; type: ADME; conditions: read-out: Activity
CYP2C19 = CYP2C19 (Homo sapiens, UniProt P33261); test: Inhibition of CYP2C19 (unknown origin) assessed as remaining activity at 10 uM relative to control; type: ADME; conditions: read-out: Activity
CYP2D6 = CYP2D6 (Homo sapiens, UniProt P10635); test: Inhibition of CYP2D6 (unknown origin) assessed as remaining activity at 10 uM relative to control; type: ADME; conditions: read-out: Activity
CYP3A4 = CYP3A4 (Homo sapiens, UniProt P08684); test: Inhibition of CYP3A4 (unknown origin) assessed as remaining activity at 10 uM relative to control; type: ADME; conditions: read-out: Activity
[19] = system: Fibroblast growth factor receptor 2 (Homo sapiens), P21802 [V564F]; test: Inhibition of FGFR2 V564F mutant (unknown origin) at 10 uM by radiometric kinase activity assay relative to control
[20] = system: Fibroblast growth factor receptor 2 (Homo sapiens), P21802 [N549H]; test: Inhibition of FGFR2 N549H mutant (unknown origin) at 10 uM by radiometric kinase activity assay relative to control
[21] = system: Fibroblast growth factor receptor 3 (Homo sapiens), P22607 [V555M]; test: Inhibition of FGFR3 V555M mutant (unknown origin) at 10 uM by radiometric kinase activity assay relative to control
BaF3 [22] = test: Growth inhibition of mouse BaF3 cells harboring TEL-FGFR3 V555M mutant incubated for 72 hrs by Alamar blue assay; type: functional
AN3-CA [23] = test: Antitumor activity against human AN3-CA cells xenografted in BALB/c mouse assessed as tumor mean volume at 10 mg/kg, po qd for 15 days measured once every 2 days (reference value: 100%); type: functional; conditions: time 15 day
BaF3 [24] = test: Antitumor activity against mouse BaF3 cells harboring TEL-V555M-FGFR3 mutant xenografted in BALB/c mouse assessed as tumor mean volume at 30 mg/kg, po qd for 15 days measured once every 2 days (reference value: 100%); type: functional; conditions: time 15 day
BaF3 [25] = test: Antitumor activity against mouse BaF3 cells harboring TEL-V555M-FGFR3 mutant xenografted in BALB/c mouse assessed as tumor mean volume at 30 mg/kg, ip qd for 15 days measured once every 2 days (reference value: 100%); type: functional; conditions: time 15 day
BaF3 [26] = test: Antitumor activity against mouse BaF3 cells harboring TEL-V555M-FGFR3 mutant xenografted in BALB/c mouse assessed as tumor growth inhibition at 30 mg/kg, ip qd for 15 days measured once every 2 days; type: functional; conditions: BaF3, 360 h, time 15 day
[27] = Oral bioavailability in mouse at 10 mg/kg; type: ADME, organism-based; conditions: in vivo
[28] = Toxicity in BALB/c mouse xenografted with human AN3-CA cells assessed as body weight loss at 20 to 40 mg/kg, po qd for 15 days measured once every 2 days; type: organism-based; conditions: in vivo, 360 h, dose 20-40 mg/kg, time 15 day

Chain of Fibroblast growth factor receptor 2 (Homo sapiens, UniProt P21802) (P21802 whole entry): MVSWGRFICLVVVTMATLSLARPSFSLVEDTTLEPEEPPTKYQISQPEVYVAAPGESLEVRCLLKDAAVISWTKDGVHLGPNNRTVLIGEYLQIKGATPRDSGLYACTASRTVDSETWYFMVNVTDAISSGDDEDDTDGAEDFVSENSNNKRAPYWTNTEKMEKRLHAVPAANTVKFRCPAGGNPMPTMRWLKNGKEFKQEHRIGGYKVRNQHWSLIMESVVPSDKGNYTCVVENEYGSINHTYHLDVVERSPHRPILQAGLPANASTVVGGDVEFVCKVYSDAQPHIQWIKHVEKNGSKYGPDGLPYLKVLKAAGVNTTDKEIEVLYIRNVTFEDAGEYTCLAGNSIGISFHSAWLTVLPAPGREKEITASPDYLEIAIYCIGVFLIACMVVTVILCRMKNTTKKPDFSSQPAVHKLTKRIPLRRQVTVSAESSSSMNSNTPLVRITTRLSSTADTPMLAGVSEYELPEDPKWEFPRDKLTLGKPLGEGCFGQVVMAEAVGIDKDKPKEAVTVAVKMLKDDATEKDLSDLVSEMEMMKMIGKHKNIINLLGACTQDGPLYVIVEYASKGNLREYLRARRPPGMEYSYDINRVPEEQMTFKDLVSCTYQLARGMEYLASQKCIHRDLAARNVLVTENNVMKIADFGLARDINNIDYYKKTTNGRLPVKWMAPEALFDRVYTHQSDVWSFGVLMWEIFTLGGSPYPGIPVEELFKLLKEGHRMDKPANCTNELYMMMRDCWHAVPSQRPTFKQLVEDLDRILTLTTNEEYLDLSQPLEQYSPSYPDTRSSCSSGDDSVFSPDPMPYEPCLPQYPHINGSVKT
Chain of CYP2C9 (P11712 whole entry): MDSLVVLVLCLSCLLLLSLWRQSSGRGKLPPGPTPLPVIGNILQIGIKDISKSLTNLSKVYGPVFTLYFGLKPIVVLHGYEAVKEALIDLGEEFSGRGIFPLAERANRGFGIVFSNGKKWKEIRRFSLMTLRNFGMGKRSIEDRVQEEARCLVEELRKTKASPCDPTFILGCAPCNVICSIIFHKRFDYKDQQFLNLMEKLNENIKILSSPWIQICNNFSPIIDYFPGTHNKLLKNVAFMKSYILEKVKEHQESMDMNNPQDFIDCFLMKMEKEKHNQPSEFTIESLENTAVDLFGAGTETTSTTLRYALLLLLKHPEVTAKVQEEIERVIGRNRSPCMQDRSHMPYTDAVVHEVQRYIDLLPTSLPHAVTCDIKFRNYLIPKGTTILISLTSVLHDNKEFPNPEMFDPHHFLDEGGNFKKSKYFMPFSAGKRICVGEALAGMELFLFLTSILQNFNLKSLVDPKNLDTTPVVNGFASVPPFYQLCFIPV
Chain of Fibroblast growth factor receptor 3 (Homo sapiens), P22607 [V555M] (P22607 whole entry V555M): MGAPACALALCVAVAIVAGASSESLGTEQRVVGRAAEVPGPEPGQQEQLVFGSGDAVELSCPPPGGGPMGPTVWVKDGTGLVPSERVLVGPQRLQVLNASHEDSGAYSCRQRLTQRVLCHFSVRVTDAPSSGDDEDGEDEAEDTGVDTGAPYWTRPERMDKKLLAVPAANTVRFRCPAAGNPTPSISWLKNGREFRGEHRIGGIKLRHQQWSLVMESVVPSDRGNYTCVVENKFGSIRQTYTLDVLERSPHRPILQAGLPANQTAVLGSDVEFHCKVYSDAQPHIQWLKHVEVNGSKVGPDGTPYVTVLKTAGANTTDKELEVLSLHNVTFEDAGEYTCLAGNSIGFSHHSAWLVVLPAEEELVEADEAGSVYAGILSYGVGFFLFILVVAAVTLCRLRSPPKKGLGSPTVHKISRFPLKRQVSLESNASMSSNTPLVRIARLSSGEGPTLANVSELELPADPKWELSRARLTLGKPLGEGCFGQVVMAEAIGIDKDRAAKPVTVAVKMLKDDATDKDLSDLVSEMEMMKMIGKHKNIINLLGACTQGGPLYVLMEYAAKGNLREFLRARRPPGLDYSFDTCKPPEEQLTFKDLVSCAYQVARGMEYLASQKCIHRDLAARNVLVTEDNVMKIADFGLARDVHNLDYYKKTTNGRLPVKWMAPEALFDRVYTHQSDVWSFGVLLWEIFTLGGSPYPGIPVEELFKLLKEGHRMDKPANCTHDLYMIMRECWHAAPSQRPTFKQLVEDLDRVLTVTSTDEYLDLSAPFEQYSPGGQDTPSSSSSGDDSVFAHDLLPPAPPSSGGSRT
Chain of Fibroblast growth factor receptor 3 (Homo sapiens, UniProt P22607, V555M) (P22607 23-806 V555M limits assumed): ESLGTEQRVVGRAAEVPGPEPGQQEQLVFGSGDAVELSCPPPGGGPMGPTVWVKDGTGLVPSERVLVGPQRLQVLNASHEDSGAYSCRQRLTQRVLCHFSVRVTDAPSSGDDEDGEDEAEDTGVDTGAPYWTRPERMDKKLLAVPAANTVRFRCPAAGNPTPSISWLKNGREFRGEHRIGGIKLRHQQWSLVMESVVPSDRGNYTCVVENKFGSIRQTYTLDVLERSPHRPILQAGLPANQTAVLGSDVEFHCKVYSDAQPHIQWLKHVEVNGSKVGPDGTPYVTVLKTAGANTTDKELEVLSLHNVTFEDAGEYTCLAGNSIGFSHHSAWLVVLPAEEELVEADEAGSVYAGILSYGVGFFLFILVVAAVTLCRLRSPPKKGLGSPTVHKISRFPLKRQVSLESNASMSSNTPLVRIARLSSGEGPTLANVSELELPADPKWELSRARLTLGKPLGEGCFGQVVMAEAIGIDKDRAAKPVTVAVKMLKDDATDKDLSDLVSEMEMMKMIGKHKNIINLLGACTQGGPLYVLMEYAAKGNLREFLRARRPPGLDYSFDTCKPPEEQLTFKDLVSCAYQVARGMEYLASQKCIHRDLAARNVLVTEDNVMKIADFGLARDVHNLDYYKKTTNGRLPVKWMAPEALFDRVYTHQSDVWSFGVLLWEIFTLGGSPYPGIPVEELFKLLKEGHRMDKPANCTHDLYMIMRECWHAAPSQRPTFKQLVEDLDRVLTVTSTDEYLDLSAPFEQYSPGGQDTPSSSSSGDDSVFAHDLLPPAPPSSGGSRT
Chain of Fibroblast growth factor receptor 3 (Homo sapiens, UniProt P22607) (P22607 whole entry): as the sequence (P22607 whole entry V555M) above, with M555V counted along it
Chain of Fibroblast growth factor receptor 2 (Homo sapiens, UniProt P21802, V564F) (P21802 22-821 V564F limits assumed): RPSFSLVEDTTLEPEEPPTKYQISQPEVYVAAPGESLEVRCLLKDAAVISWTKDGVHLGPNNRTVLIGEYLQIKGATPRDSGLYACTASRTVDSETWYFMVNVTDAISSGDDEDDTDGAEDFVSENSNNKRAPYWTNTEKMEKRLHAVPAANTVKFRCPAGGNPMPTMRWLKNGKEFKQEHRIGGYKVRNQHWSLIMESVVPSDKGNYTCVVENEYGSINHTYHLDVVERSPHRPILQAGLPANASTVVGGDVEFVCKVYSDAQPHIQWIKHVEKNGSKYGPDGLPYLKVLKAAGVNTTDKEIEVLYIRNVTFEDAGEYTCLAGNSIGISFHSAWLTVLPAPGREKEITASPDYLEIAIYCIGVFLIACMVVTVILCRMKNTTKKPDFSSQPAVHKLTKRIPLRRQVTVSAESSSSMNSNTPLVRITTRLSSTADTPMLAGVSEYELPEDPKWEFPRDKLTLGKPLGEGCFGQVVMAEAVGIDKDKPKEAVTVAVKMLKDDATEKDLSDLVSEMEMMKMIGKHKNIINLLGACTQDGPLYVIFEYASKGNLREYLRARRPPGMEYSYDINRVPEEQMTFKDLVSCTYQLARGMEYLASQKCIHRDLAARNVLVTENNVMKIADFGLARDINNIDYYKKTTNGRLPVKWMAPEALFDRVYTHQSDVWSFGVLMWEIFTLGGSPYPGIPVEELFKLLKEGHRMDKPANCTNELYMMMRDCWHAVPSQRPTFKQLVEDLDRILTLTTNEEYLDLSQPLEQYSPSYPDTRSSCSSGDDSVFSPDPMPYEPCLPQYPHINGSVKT
Chain of CYP3A4 (P08684 whole entry): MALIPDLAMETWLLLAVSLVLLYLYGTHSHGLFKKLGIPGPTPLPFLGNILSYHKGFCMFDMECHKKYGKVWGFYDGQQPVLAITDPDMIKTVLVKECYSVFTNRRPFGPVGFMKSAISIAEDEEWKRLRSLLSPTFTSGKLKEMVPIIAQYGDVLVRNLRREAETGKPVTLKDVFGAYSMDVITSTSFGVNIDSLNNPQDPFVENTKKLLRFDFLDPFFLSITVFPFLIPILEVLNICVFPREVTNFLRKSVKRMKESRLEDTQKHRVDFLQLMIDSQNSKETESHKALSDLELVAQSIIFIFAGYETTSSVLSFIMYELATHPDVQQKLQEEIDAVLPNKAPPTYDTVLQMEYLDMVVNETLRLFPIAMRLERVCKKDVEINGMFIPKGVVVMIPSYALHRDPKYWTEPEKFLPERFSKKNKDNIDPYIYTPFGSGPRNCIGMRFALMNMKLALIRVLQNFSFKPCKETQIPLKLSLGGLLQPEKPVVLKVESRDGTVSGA

Row | SMILES | IC50 [1] [nM] | IC50 [2] [nM] | IC50 [3] [nM] | IC50 [4] [nM] | GI50 (BaF3 [9]) [nM] | GI50 (BaF3 [10]) [nM] | GI50 [11] [nM] | GI50 (BaF3 [12]) [nM] | GI50 (BaF3 [13]) [nM] | GI50 (AN3-CA [14]) [nM] | GI50 (KMS-11) [nM] | GI50 (J82) [nM] | remaining at 0.5 h, 1 µM [15] [%] | remaining at 0.5 h, 1 µM [16] [%] | activity at 10 µM (CYP1A2) [%] | activity at 10 µM (CYP2C9) [%] | activity at 10 µM (CYP2C19) [%] | activity at 10 µM (CYP2D6) [%] | activity at 10 µM (CYP3A4) [%] | inhibition [19] [%] | further results
1 | COc1cc(OC)c(Cl)c(Nc2ncccc2-c2ncnc(Nc3ccc(N4C[C@@H](C)N[C@@H](C)C4)cc3)n2)c1Cl | < 0.5 | 0.6 | 27 | 363 | 733 | 5 | 1530 | 354 | 520 | 15 | 237 | 428 | 10.2 | 44.8 | 72.6 | 62.3 | 31.8 | 77.3 | 13.3 |  | IC50 [5]: 116 nM; IC50 [6]: 0.52 nM; IC50 [7]: < 0.5 nM; IC50 [8]: 26.1 nM; remaining at 0.5 h, 1 µM [17]: 11.7%; remaining at 0.5 h, 1 µM [18]: 19%
2 | COc1cc(OC)c(Cl)c(Nc2ncccc2-c2ncnc(Nc3ccc(N4CCOCC4)nc3OC)n2)c1Cl |  | 1710 |  |  | > 5000 | > 5000 | > 5000 |  |  | > 50000 | > 50000 | 31000 |  |  |  |  |  |  |  | < 50 | inhibition [20]: < 50%; inhibition [21]: < 50%
3 | Cc1nc2ccc(-n3ncc(C(=O)c4cc5ccccc5[nH]4)c3N)cc2[nH]1 [FGFR INHIBITOR DEBIO 1347] |  |  |  |  |  |  |  |  |  |  |  |  |  |  |  |  |  |  |  |  | GI50 (BaF3 [22]): 8240 nM
4 | COc1cc(OC)c(Cl)c(Nc2ncccc2-c2ncnc(Nc3cnn(C4CCN(C(C)C)CC4)c3)n2)c1Cl | < 0.5 | < 0.5 | 7.3 | 189 | 183 | 5 | > 5000 | 749 | 1680 | 21 | 34 | 547 | 21.8 | 11.5 | 75.9 | 79.1 | 44.6 | 81 | 17.6 |  | IC50 [5]: 22.3 nM; IC50 [6]: < 0.5 nM; IC50 [7]: < 0.5 nM; IC50 [8]: 4.8 nM
5 | CCN1CCN(c2ccc(Nc3cc(N(C)C(=O)Nc4c(Cl)c(OC)cc(OC)c4Cl)ncn3)cc2)CC1 [INFIGRATINIB] |  |  |  |  | 2600 | 5 | > 5000 | 4000 | > 5000 | 39 | 220 | 3340 | 77 | 22.3 | 77.3 | 88.4 | 64.9 | 94.9 | 83 | < 50 | Activity (AN3-CA [23]): 14.1%; Activity (BaF3 [24]): 49%; Activity (BaF3 [25]): 44.74%; inhibition in vivo at 30 mg/kg (BaF3 [26]): 60.2%; remaining at 0.5 h, 1 µM [17]: 10.9%; remaining at 0.5 h, 1 µM [18]: 8.1%
6 | COc1ccccc1Nc1ncnc(-c2cccnc2Nc2c(Cl)c(OC)cc(OC)c2Cl)n1 |  | 275 |  |  | > 5000 | 4120 | > 5000 |  |  | 5550 | > 50000 | 31200 |  |  |  |  |  |  |  | < 50 | inhibition [20]: < 50%; inhibition [21]: < 50%
7 | COc1cc(N2CCOCC2)ccc1Nc1ncnc(-c2cccnc2Nc2c(Cl)c(OC)cc(OC)c2Cl)n1 |  | 1550 |  |  | > 5000 | > 5000 | > 5000 |  |  | > 50000 | > 50000 | 31200 |  |  |  |  |  |  |  | < 50 | inhibition [20]: < 50%; inhibition [21]: < 50%
8 | COc1cc(OC)c(Cl)c(Nc2ncccc2-c2ncnc(Nc3cnn(C4CCNCC4)c3)n2)c1Cl | < 0.5 | 0.98 | 26.3 | 727 | 1020 | 10 | > 5000 | 2590 | 3650 | 29 | 111 | 977 | 62.6 | 62.1 | 72.8 | 89.9 | 51 | > 100 | 44.1 |  | IC50 [5]: 268 nM; IC50 [6]: 2.53 nM; IC50 [7]: < 0.5 nM; IC50 [8]: 10.9 nM; bioavailability [27]: 13.2%; Activity [28]: Non-Toxic; remaining at 0.5 h, 1 µM [17]: 65.4%; remaining at 0.5 h, 1 µM [18]: 66.9%
